Results from patent US20070218002A1, “Method for Detecting Alzheimer's Disease and other Forms of Dementia, and Measuring Their Progression” (priority 2004, published 2007).
Entries after “also recorded” stand apart in the source; their conditions may differ.

Key:
[1] = system: NFTs and SPs (neurofibrillary tangles, β-amyloid senile plaques); assay: [F-18]FDDNP PET, Logan plot relative distribution volume; assay type: in vivo, human; details: cerebellum reference
Procedure: All scans were performed with ECAT HR or ECAT HR+ scanners (Siemens-CTI, Knoxville, Tenn.). The subjects were in the supine position with the imaging plane parallel to the orbito-meatal line and with their eyes open and ears unoccluded. A 20 min transmission scan was performed to correct PET data for radiation attenuation. 320-550 MBq of a PET tracer was injected as a bolus injection via the in-dwelling venous catheter, and the consecutive dynamic head PET scans were performed for 1 hour with [F-18]FDG or for 2 hours with [F-18]MPPF or with [F-18]FDDNP.
All PET scans were decay corrected and reconstructed using filtered-back projection (Hann filter, 5 mm FWHM) with scatter and attenuation correction. The resulting images contained either 47 contiguous slices with 3.4 mm plane-to-pane separation (EXACT HR) or 63 contiguous slices with the plane-to-plane separation of 2.42 mm (EXACT HR+).
Quantitation of [F-18]FDDNP data was performed using the Logan plot graphical analysis with the cerebellum as the reference region. Distribution volume ratio (DVR) parametric images were created as described elsewhere. ROIs were drawn bilaterally on the early frames of the dynamic PET scan (3 min to 6 min post-injection) using MRI as a guide bilaterally on the transaxial images on frontal lobe, on parietal lobe, on medial temporal lobe, and on lateral temporal lobe. In addition, a single ROI was placed on posterior cingulated gyrus. DV values for cortical regions were extracted from the [F-18]FDDNP DV parametric image using the above-described ROI set. DV values were determined for all 9 cortical ROIs and for cerebellum. Relative global neocortical [F-18]FDDNP distribution volume (global DVR) was determined by dividing the DV average value of the eight neocortical ROIs with the DV average value of cerebellar ROIs. In similar fashion, regional relative distribution volumes (DVRs) were determined for frontal, parietal, lateral temporal and medial temporal areas by dividing the DV average of both ROIs from the corresponding region with the DV average value of cerebellar ROIs. The posterior cingulated gyrus DVR was determined by dividing the cingulated gyrus DV value with the DV average value of cerebellar ROIs.

[2] = system: Tau aggregates and amyloid plaques; assay: In vitro [F-18]FDDNP digital autoradiography on brain tissue slices; assay type: binding, human
Procedure: Two AD and three control brain samples were obtained at the time of autopsy from the Alzheimer's Disease Research Center at USC Keck School of Medicine, Los Angeles. Glass mounted whole-hemisphere brain cryosections (100 μm thick), cut at the level of hippocampus, were incubated with 1.85 MBq/mL of […] in 50 mM Tris buffer/saline (pH=7.4) for 2 hours at room temperature. The samples were exposed to β^+-sensitive phosphor storage plates for 60 min, scanned in with BAS 5000 Phosphorimager, and analyzed with MacBAS software provided with the instrument (Fuji Film Medical Systems USA, Stamford, Conn.). […] All values were normalized to the inner layer, known to be well preserved in AD (16). [F-18]FDDNP autoradiography was performed as described elsewhere (17). In brief, the de-fattened tissue slices were incubated with 0.37 MBq/mL of [F-18]FDDNP in 1% ethanol in normal saline for 25 min at room temperature followed by differentiation in 60% 2-methyl-2-butanol (3 min). The sections were exposed to β^+-sensitive phosphor storage plates for 60 min and scanned in with BAS 5000 Phosphorimager.

`CC(=C(C#N)C#N)c1ccc2cc(N(C)CC[18F])ccc2c1` [[F-18]FDDNP, 2-(1-{6-[(2-[F-18]fluoroethyl)(methyl)amino]-2-naphthyl}ethylidene)malononitrile] was tested, and the “FDDNP mean DVR ± 1 SD, Frontal Lobe” value ([1]; AD group) was 1.11 ± 0.03, the “FDDNP mean DVR ± 1 SD, Global” value ([1]; AD group) was 1.17±0.01 and the “FDDNP mean DVR ± 1 SD, Lateral Temporal Lobe” value ([1]; AD group) was 1.17 ± 0.03. The “FDDNP mean DVR ± 1 SD, Medial Temporal Lobe” value ([1]; AD group) was 1.23 ± 0.04, the “FDDNP mean DVR ± 1 SD, Parietal Lobe” value ([1]; AD group) was 1.17 ± 0.03 and the “FDDNP mean DVR ± 1 SD, Posterior Cingulate Gyrus” value ([1]; AD group) was 1.18 ± 0.06. The “FDDNP mean DVR ± 1 SD, Global” value ([1]; AD group, listed as FDDNP) was 1.17 ± 0.01, the “FDDNP mean DVR ± 1 SD, Frontal Lobe” value ([1]; CTRL group) was 1.05 ± 0.01 and the “FDDNP mean DVR ± 1 SD, Global” value ([1]; CTRL group) was 1.08±0.03. The “FDDNP mean DVR ± 1 SD, Lateral Temporal Lobe” value ([1]; CTRL group) was 1.07 ± 0.03, the “FDDNP mean DVR ± 1 SD, Medial Temporal Lobe” value ([1]; CTRL group) was 1.12 ± 0.05 and the “FDDNP mean DVR ± 1 SD, Parietal Lobe” value ([1]; CTRL group) was 1.07 ± 0.03. For the same compound, the “FDDNP mean DVR ± 1 SD, Posterior Cingulate Gyrus” value ([1]; CTRL group) was 1.07 ± 0.05, the “FDDNP mean DVR ± 1 SD, Global” value ([1]; CTRL group, listed as FDDNP) was 1.08 ± 0.03 and the “FDDNP mean DVR ± 1 SD, Frontal Lobe” value ([1]; MCI group) was 1.08 ± 0.01. For the same compound, the “FDDNP mean DVR ± 1 SD, Global” value ([1]; MCI group) was 1.12 ± 0.01, the “FDDNP mean DVR ± 1 SD, Lateral Temporal Lobe” value ([1]; MCI group) was 1.13 ± 0.03 and the “FDDNP mean DVR ± 1 SD, Medial Temporal Lobe” value ([1]; MCI group) was 1.19 ± 0.02. For the same compound, the “FDDNP mean DVR ± 1 SD, Parietal Lobe” value ([1]; MCI group) was 1.09 ± 0.03, the “FDDNP mean DVR ± 1 SD, Posterior Cingulate Gyrus” value ([1]; MCI group) was 1.12 ± 0.03 and the “[F-18]FDDNP binding to gray matter, autoradiography” value ([2]; AD tissue) was “increased in the gray matter of temporal and limbic lobes; also recorded: strong [F-18]FDDNP binding to the gray matter in the temporal lobe and in cingulated gyrus”. For the same compound, the “[F-18]FDDNP binding to gray matter, autoradiography” value ([2]; normal control brain samples) was “uniformly low; also recorded: none of the gray matter areas from the normal control brain samples showed [F-18]FDDNP binding above background levels in white matter”.
